This is an account of results in US20090298708A1, “2'-DEOXY-2'-FLUORO-BETA-D-ARABINONUCLEOSIDE 5'-TRIPHOSPHATES AND THEIR USE IN ENZYMATIC NUCLEIC ACID SYNTHESIS” (priority 2006, published 2009).

Common to all, as to set-up: key: ++++: excellent (no pausing observed); +++: very good (with slight pausing); ++: Good, full-length products with significant pausing; +: significant pausing, no full-length product but at least one 2′F-araN incorporation detected
The target of experiment [1] is T1, Bst DNA polymerase large fragment (Bst) (Geobacillus stearothermophilus, UniProt P52026).
T1 construct: consists of the portion of the Bacillus stearothemmophilus DNA polymerase protein responsible for 5′->3′ polymerase activity but lacks the 5′->3′ exonuclease domain; purchased New England Biolabs
T1 sequence (P52026 289-876 limits assumed): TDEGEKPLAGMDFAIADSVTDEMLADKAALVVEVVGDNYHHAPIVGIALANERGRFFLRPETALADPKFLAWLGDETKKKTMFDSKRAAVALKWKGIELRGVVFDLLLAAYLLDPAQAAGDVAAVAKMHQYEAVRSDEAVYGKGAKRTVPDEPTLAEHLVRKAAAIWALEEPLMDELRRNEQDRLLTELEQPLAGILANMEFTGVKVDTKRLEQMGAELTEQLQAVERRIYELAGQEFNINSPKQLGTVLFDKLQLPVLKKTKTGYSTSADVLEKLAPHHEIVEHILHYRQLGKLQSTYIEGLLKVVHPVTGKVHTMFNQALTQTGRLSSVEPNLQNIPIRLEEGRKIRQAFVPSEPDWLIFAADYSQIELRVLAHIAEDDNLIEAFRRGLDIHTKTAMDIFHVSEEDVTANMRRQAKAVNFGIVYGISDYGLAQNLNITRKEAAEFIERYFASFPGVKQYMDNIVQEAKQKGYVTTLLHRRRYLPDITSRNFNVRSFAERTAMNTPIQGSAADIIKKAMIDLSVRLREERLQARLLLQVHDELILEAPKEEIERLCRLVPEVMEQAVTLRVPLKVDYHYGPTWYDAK
The experiment is described as follows: Primer extension assay with Bst DNA polymerase large fragment. The format is biochemical. To be noted: for Incorporation of three 2′F-araTTP / 2′F-araCTP (incorporation efficiency): DNA template PF22 (2′F-araTTP) or PF24 (2′F-araCTP); for Enzymatic activity during primer extension reactions: plus dATP, dGTP. As for the experimental part:
(§1) Various different types of DNA polymerases were assessed, including the mesophilic enzyme Klenow fragment of DNA pol I (3′→5′ exo-) (“Kf”); the thermophilic DNA polymerases DV, 9N, Taq, Bst pol I, Th and Ph; and the viral reverse transcriptases HIV RT and MMLV. Kf is a genetically engineered proteolytic product of E. coli pol A gene that encodes DNA polymerase I which retains polymerase activity but has a mutation which abolishes the 3′->5′ and 5′->3′ exonuclease activities. DV is a genetically engineered DNA polymerase purified from a strain of E. coli that carries the DV DNA polymerase gene from Pyrococcus species GB-D. The gene has been engineered to eliminate 3′->5′ proofreading exonuclease activity. 9N is a genetically engineered DNA polymerase that has decreased 3′->5′ proofreading exonuclease activity. 9N is purified from a strain of E. coli that carries a modified 9° N DNA polymerase gene from Thermococcus species (strain 9° N-7). […] Taq polymerase is isolated from E. coli engineered to express Taq polymerase from Thermus aquaticus YT-1. Bst DNA polymerase (Large fragment) is a genetically engineered polymerase that consists of the portion of the Bacillus stearothemmophilus DNA polymerase protein responsible for 5′->3′ polymerase activity but lacks the 5′->3′ exonuclease domain. Th DNA polymerase is a genetically engineered, archaeon-derived DNA polymerase that is a variant of the 9N polymerase described above. The recombinant protein is isolated from E. coli engineered to express 9° NA485L (exo-) DNA polymerase gene, a genetic variant of the native DNA polymerase from Thermococcus species 9° N-7. Ph is a recombinant DNA polymerase that consists of a novel Pyrococcus-like enzyme fused with a double-strand DNA-binding and processivity-enhancing domain.
(§2) Primer extension assays were used to assess the incorporation of 2′F-araNTP on the various DNA templates (Table 1). The DNA primer (PF20) was first radioactively labeled at the 5′-hydroxyl terminus with a radioactive phosphorus probe and the enzyme T4 polynucleotide kinase (T4 PNK) (see Example 1 for General Methods). To assess the incorporation of 2′F-araNTPs, the primer and template were annealed, and the nucleoside 5′-triphosphates added in the presence of enzyme under the conditions specified in Table 2. Time points were obtained by analyzing small aliquots from the reaction mixture through polyacryamide gel electrophoresis (PAGE) and autoradiography.
(§3) Unless otherwise noticed in the Examples described below, the conditions used in the primer extension assays, such as dNTP concentration, reaction temperatures, concentration of Mg^2+, and reaction buffers (provided by the manufacturers, except for the HIV buffer which was prepared in-house) are shown in Table 2.
Primer extension assays were used to assess the incorporation of 2′F-araTTP on the DNA template (PF22). The DNA primer (PF20) was first radioactively labeled at the 5′-hydroxyl terminus with a radioactive phosphorus probe and the enzyme T4 polynucleotide kinase (T4 PNK) according to the manufacturer's specifications (MBI Fermentas Life Sciences, Burlington, ON). Incorporation of the ^32P label was accomplished in reaction mixtures consisting of DNA substrate (200 pmol), 2 μl loxreaction buffer (Buffer A for forward reaction: 500 mM Tris-HCl, pH 7.6 at 25° C., 100 mM MgCl2, 50 mM DTT, 1 mM spermidine and 1 mM EDTA), 1 μl T4 PNK enzyme solution (10 U/1 μl in a solution of 20 mM Tris-HCl, pH 7.5, 25 mM KCl, 0.1 mM EDTA, 2 mM DTT and 50% glycerol), 6 μl [γ-^32P]-ATP solution (6000 Ci/mmol, 10 mCi/ml; Amersham Biosciences, Inc.) and autoclaved sterile water to a final volume of 20 μl. The reaction mixture was incubated for about 45-60 min at 37° C., followed by a second incubation for 10 min at 95° C. to heat denature and deactivate the kinase enzyme.

For experiment [2], the system named is Phusion™ High-Fidelity DNA polymerase (Ph). Kind of experiment: Primer extension assay with Phusion High-Fidelity DNA polymerase. The conditions noted are these: 55° C.; for Incorporation of three 2′F-araTTP / 2′F-araCTP (incorporation efficiency): DNA template PF22 (2′F-araTTP) or PF24 (2′F-araCTP); for Enzymatic activity during primer extension reactions: plus dATP, dGTP. The format is biochemical. The procedure:
as §1, §2
(§4) Unless otherwise noticed in the Examples described below, the conditions used in the primer extension assays, such as dNTP concentration, reaction temperatures, concentration of Mg^2+, and reaction buffers (provided by the manufacturers, except for the HIV buffer which was prepared in-house) are shown in Table 2. […]

For experiment [3], the target named is T2, Klenow fragment DNA polymerase (3′→ 5′ exo-) (Kf) (Escherichia coli, UniProt P00582, D355A/E357A).
T2 construct: the mesophilic enzyme Klenow fragment of DNA pol I (3′→5′ exo-) (“Kf”); purchased New England Biolabs
The format is biochemical, E. coli. The conditions noted are these: 37° C.; for Incorporation of three 2′F-araTTP / 2′F-araCTP (incorporation efficiency): DNA template PF22 (2′F-araTTP) or PF24 (2′F-araCTP); for Enzymatic activity during primer extension reactions: plus dATP, dGTP. As for the experimental part: as §1, §2, §4

Experiment [4] deals with T3, Taq DNA polymerase (Taq) (Thermus aquaticus, UniProt P19821).
T3 construct: purchased New England Biolabs; host or cells: E. coli
The experiment is described as follows: Primer extension assay with Taq DNA polymerase. The format is biochemical, Thermus aquaticus YT-1. To be noted: for Incorporation of three 2′F-araTTP / 2′F-araCTP (incorporation efficiency): DNA template PF22 (2′F-araTTP) or PF24 (2′F-araCTP); for Enzymatic activity during primer extension reactions: plus dATP, dGTP. The procedure:
as §1, §2, §3
Primer extension assays were used to assess the incorporation of 2′F-araTTP on the DNA template (PF22). The DNA primer (PF20) was first radioactively labeled at the 5′-hydroxyl terminus with a radioactive phosphorus probe and the enzyme T4 polynucleotide kinase (T4 PNK) according to the manufacturer's specifications (MBI Fermentas Life Sciences, Burlington, ON). […]

Where [5] appears, read: Example 3, DNA template PF24, 3x 2′F-araCTP, dTTP, 55° C.
Setting [6] is: Example 3, DNA template PF24, 3x 2′F-araCTP, dTTP.
Setting [7] is: Example 2, DNA template PF22, 3x 2′F-araTTP, dCTP.

Like-named read-outs stand apart in the source and are kept apart here. Marks after values point to notes of the source that are not given here.

T3 sequence (P19821 whole entry): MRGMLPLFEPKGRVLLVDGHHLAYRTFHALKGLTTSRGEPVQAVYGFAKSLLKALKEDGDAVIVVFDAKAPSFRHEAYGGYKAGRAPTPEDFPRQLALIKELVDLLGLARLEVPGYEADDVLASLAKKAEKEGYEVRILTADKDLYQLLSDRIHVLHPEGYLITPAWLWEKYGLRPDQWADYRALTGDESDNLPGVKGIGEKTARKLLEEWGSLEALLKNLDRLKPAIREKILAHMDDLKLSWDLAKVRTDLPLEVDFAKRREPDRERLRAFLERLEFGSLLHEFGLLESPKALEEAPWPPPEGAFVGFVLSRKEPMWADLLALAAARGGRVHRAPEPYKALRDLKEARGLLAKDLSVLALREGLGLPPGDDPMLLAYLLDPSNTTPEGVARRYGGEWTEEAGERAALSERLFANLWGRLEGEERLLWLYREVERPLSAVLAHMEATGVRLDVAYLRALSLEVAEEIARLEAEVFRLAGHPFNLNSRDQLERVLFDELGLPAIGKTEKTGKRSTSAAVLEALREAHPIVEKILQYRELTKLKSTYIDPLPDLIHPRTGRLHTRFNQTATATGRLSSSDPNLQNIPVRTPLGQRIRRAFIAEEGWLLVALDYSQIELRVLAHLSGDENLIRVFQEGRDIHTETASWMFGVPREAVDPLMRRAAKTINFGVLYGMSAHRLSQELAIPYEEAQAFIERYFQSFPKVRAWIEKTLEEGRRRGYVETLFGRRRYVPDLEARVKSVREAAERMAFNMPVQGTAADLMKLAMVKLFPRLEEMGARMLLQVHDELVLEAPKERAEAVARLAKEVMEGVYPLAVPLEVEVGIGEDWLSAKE
T2 sequence (P00582 324-928 D355A/E357A): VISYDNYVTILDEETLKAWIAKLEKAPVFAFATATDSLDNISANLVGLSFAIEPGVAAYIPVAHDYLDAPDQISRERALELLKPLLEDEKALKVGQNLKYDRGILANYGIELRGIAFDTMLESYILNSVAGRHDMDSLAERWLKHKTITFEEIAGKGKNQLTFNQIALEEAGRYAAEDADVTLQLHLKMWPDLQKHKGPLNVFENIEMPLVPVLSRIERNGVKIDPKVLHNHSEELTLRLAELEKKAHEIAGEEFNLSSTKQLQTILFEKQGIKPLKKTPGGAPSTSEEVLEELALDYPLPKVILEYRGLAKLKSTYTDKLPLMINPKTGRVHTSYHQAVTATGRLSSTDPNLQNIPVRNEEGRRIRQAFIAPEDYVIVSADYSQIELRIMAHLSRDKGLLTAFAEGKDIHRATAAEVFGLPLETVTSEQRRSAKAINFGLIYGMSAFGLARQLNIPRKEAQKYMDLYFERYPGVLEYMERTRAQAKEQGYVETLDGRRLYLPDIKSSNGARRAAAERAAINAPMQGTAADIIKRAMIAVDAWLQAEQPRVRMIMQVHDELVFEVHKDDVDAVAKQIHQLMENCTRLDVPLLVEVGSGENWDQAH

As to `Nc1ccn([C@@H]2O[C@H](COP(=O)(O)OP(=O)(O)OP(=O)(O)O)[C@@H](O)[C@@H]2F)c(=O)n1` [2′F-araCTP, 1-(2-deoxy-2-fluoro-β-D-arabinofuranosyl)cytosine 5′-triphosphate], the “Incorporation of three 2′F-araTTP / 2′F-araCTP (incorporation efficiency)” value is “None” in experiment [1] (37° C.); “++++” in experiment [1] (55° C.); “++++” in experiment [2]; “++” in experiment [3]; “++” in experiment [4] (37° C.); “++++” in experiment [4] (55° C.). Also, the “Enzymatic activity during primer extension reactions” value in experiment [1] (setting [5]) is “++++”; in experiment [2] (setting [6]), “++++”; in experiment [3] (setting [6]), “++”; in experiment [4] (setting [5]) it was “++++”.
As to `Cc1cn([C@@H]2O[C@H](COP(=O)(O)OP(=O)(O)OP(=O)(O)O)[C@@H](O)[C@@H]2F)c(=O)[nH]c1=O` [2′F-araTTP, 1-(2-deoxy-2-fluoro-β-D-arabino-furanosyl)thymine 5′-triphosphate], the “Incorporation of three 2′F-araTTP / 2′F-araCTP (incorporation efficiency)” value in experiment [1] (37° C.) is reported as “++”; in experiment [1] (55° C.), “+++”; in experiment [2] it was “++++”; in experiment [3], “++”; in experiment [4] (37° C.) it was “++”. The “Enzymatic activity during primer extension reactions” value in experiment [1] (Example 2, DNA template PF22, 3x 2′F-araTTP, dCTP, 55° C.) is recorded as “+++”; in experiment [2] (setting [7]), “++++”; in experiment [3] (setting [7]) it was “++”; in experiment [4] (Example 2, DNA template PF22, 3x 2′F-araTTP, dCTP, at 37° C.) it was “++^b”.
